Like-named read-outs stand apart in the source and are kept apart here.
Tested on: HBV rcDNA
Assay: HepDE19 assay with bDNA quantitation of HBV rcDNA
Format: cell-based, hepatitis B virus
Method in brief: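 Compounds, top concentration 25 μM in 8-point duplicate series, were applied to Tet-free HepDE19 cultures for 7 days. Branched-DNA quantitation of HBV rcDNA against untreated wells gave EC50 and EC90 by 4-parameter fit. Viability (CC50) came from ATP luminescence on parallel plates incubated 4 days.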

[1] = read-out: DE-19bDNA EC50; HepDE19 assay, inhibition of formation of relaxed circular DNA (rcDNA), bDNA quantitation
[2] = HepDE19 assay, inhibition of formation of relaxed circular DNA (rcDNA), bDNA quantitation; read-out: DE-19bDNA EC50

Question: For `CC(c1c[nH]c(=O)c2cc(F)c(F)cc12)N(C)C(=O)Nc1ccccc1` (single isomer, unassigned) [Compound 398, 1-(1-(6,7-Difluoro-1-oxo-1,2-dihydroisoquinolin-4-yl)ethyl)-1-methyl-3-phenylurea], which EC50 [1] is on record?
Answer: 16000 nM

Question: For `CC(c1c[nH]c(=O)c2cc(F)c(F)cc12)N(C)C(=O)Nc1ccccc1` (single isomer, unassigned) [Compound 399, 1-(1-(6,7-Difluoro-1-oxo-1,2-dihydroisoquinolin-4-yl)ethyl)-1-methyl-3-phenylurea], which EC50 [1] is on record?
Answer: 110 nM

Question: How did the EC50 [1] turn out when `CC(c1c[nH]c(=O)c2cc(F)c(F)cc12)N(C)C(=O)Nc1ccc(Cl)cc1` (single isomer, unassigned) [Compound 400, 3-(4-Chlorophenyl)-1-(1-(6,7-difluoro-1-oxo-1,2-dihydroisoquinolin-4-yl)ethyl)-1-methylurea] was run?
Answer: 7200 nM

Question: `CC(c1c[nH]c(=O)c2cc(F)c(F)cc12)N(C)C(=O)Nc1ccc(Cl)cc1` (single isomer, unassigned) [Compound 401, 3-(4-Chlorophenyl)-1-(1-(6,7-difluoro-1-oxo-1,2-dihydroisoquinolin-4-yl)ethyl)-1-methylurea] was tested. Which EC50 [1] did it give?
Answer: 90 nM

Question: `CCN(C(=O)Nc1ccc(F)cc1)C(C)c1c[nH]c(=O)c2cc(F)c(F)cc12` (single isomer, unassigned) [Compound 402, 1-(1-(6,7-Difluoro-1-oxo-1,2-dihydroisoquinolin-4-yl)ethyl)-1-ethyl-3-(4-fluorophenyl)urea] was tested. Which EC50 [2] did it give?
Answer: 10000 nM

Question: Which EC50 [2] does the source give for `CCN(C(=O)Nc1ccc(F)cc1)C(C)c1c[nH]c(=O)c2cc(F)c(F)cc12` (single isomer, unassigned) [Compound 403, 1-(1-(6,7-Difluoro-1-oxo-1,2-dihydroisoquinolin-4-yl)ethyl)-1-ethyl-3-(4-fluorophenyl)urea] here?
Answer: 28 nM

Question: `CCN(C(=O)Nc1ccccc1)C(C)c1c[nH]c(=O)c2cc(F)c(F)cc12` (single isomer, unassigned) [Compound 404, 1-(1-(6,7-Difluoro-1-oxo-1,2-dihydroisoquinolin-4-yl)ethyl)-1-ethyl-3-phenylurea] was tested. Which EC50 [1] did it give?
Answer: 18000 nM

Question: Which EC50 [1] does the source give for `CCN(C(=O)Nc1ccccc1)C(C)c1c[nH]c(=O)c2cc(F)c(F)cc12` (single isomer, unassigned) [Compound 405, 1-(1-(6,7-Difluoro-1-oxo-1,2-dihydroisoquinolin-4-yl)ethyl)-1-ethyl-3-phenylurea] here?
Answer: 58 nM

Question: Which EC50 [2] does the source give for `CCN(C(=O)Nc1ccc(F)c(Cl)c1)C(C)c1c[nH]c(=O)c2cc(F)c(F)cc12` (single isomer, unassigned) [Compound 406, 3-(3-Chloro-4-fluorophenyl)-1-(1-(6,7-difluoro-1-oxo-1,2-dihydroisoquinolin-4-yl)ethyl)-1-ethylurea] here?
Answer: 2100 nM

Question: Which EC50 [2] does the source give for `CCN(C(=O)Nc1ccc(F)c(Cl)c1)C(C)c1c[nH]c(=O)c2cc(F)c(F)cc12` (single isomer, unassigned) [Compound 407, 3-(3-Chloro-4-fluorophenyl)-1-(1-(6,7-difluoro-1-oxo-1,2-dihydroisoquinolin-4-yl)ethyl)-1-ethylurea] here?
Answer: 6 nM

Question: `CC(c1c[nH]c(=O)c2cc(F)c(F)cc12)N(C)C(=O)Nc1ccc(F)c(F)c1` (single isomer, unassigned) [Compound 408, 1-(1-(6,7-Difluoro-1-oxo-1,2-dihydroisoquinolin-4-yl)ethyl)-3-(3,4-difluorophenyl)-1-methylurea] was tested. Which EC50 [2] did it give?
Answer: 3400 nM

Question: Which EC50 [2] does the source give for `CC(c1c[nH]c(=O)c2cc(F)c(F)cc12)N(C)C(=O)Nc1ccc(F)c(F)c1` (single isomer, unassigned) [Compound 409, 1-(1-(6,7-Difluoro-1-oxo-1,2-dihydroisoquinolin-4-yl)ethyl)-3-(3,4-difluorophenyl)-1-methylurea] here?
Answer: 13 nM

Question: With `CC(c1c[nH]c(=O)c2cc(F)c(F)cc12)N(C)C(=O)Nc1cccc(F)c1` (single isomer, unassigned) [Compound 410, 1-(1-(6,7-Difluoro-1-oxo-1,2-dihydroisoquinolin-4-yl)ethyl)-3-(3-fluorophenyl)-1-methylurea] as the compound, how does the EC50 [1] read?
Answer: 2800 nM

Question: How did the EC50 [1] turn out when `CC(c1c[nH]c(=O)c2cc(F)c(F)cc12)N(C)C(=O)Nc1cccc(F)c1` (single isomer, unassigned) [Compound 411, 1-(1-(6,7-Difluoro-1-oxo-1,2-dihydroisoquinolin-4-yl)ethyl)-3-(3-fluorophenyl)-1-methylurea] was run?
Answer: 37 nM

Question: For `CC(c1c[nH]c(=O)c2cc(F)c(F)cc12)N(C)C(=O)Nc1cccc(Cl)c1` (single isomer, unassigned) [Compound 412, 1-(1-(6,7-Difluoro-1-oxo-1,2-dihydroisoquinolin-4-yl)ethyl)-3-(3-chlorophenyl)-1-methylurea], which EC50 [1] is on record?
Answer: 1900 nM

Question: For `CC(c1c[nH]c(=O)c2cc(F)c(F)cc12)N(C)C(=O)Nc1cccc(Cl)c1` (single isomer, unassigned) [Compound 413, 1-(1-(6,7-Difluoro-1-oxo-1,2-dihydroisoquinolin-4-yl)ethyl)-3-(3-chlorophenyl)-1-methylurea], which EC50 [1] is on record?
Answer: 18 nM

Question: With `CC(c1c[nH]c(=O)c2cc(F)c(F)cc12)N(C)C(=O)Nc1cc(F)c(F)c(F)c1` (single isomer, unassigned) [Compound 414, 1-(1-(6,7-Difluoro-1-oxo-1,2-dihydroisoquinolin-4-yl)ethyl)-3-(3,4,5-trifluorophenyl)-1-methylurea] as the compound, how does the EC50 [2] read?
Answer: 4800 nM

Question: How did the EC50 [2] turn out when `CC(c1c[nH]c(=O)c2cc(F)c(F)cc12)N(C)C(=O)Nc1cc(F)c(F)c(F)c1` (single isomer, unassigned) [Compound 415, 1-(1-(6,7-Difluoro-1-oxo-1,2-dihydroisoquinolin-4-yl)ethyl)-3-(3,4,5-trifluorophenyl)-1-methylurea] was run?
Answer: 21 nM

Question: For `CC(c1c[nH]c(=O)c2cc(F)c(F)cc12)N(C)C(=O)Nc1cc(Cl)cc(Cl)c1` (single isomer, unassigned) [Compound 416, 3-(3,5-Dichlorophenyl)-1-(1-(6,7-difluoro-1-oxo-1,2-dihydroisoquinolin-4-yl)ethyl)-1-methylurea], which EC50 [1] is on record?
Answer: 10000 nM

Question: With `CC(c1c[nH]c(=O)c2cc(F)c(F)cc12)N(C)C(=O)Nc1cc(Cl)cc(Cl)c1` (single isomer, unassigned) [Compound 417, 3-(3,5-Dichlorophenyl)-1-(1-(6,7-difluoro-1-oxo-1,2-dihydroisoquinolin-4-yl)ethyl)-1-methylurea] as the compound, how does the EC50 [1] read?
Answer: 140 nM

Question: `CC(c1c[nH]c(=O)c2cc(F)c(F)cc12)N(C)C(=O)Nc1ccnc(Cl)c1` (single isomer, unassigned) [Compound 418, 3-(2-Chloropyridin-4-yl)-1-(1-(6,7-difluoro-1-oxo-1,2-dihydroisoquinolin-4-yl)ethyl)-1-methylurea] was tested. Which EC50 [2] did it give?
Answer: 10000 nM

Question: How did the EC50 [2] turn out when `CC(c1c[nH]c(=O)c2cc(F)c(F)cc12)N(C)C(=O)Nc1ccnc(Cl)c1` (single isomer, unassigned) [Compound 419, 3-(2-Chloropyridin-4-yl)-1-(1-(6,7-difluoro-1-oxo-1,2-dihydroisoquinolin-4-yl)ethyl)-1-methylurea] was run?
Answer: 48 nM

Question: How did the EC50 [1] turn out when `CC(c1c[nH]c(=O)c2cc(F)c(F)cc12)N(C)C(=O)Nc1ccccc1F` (single isomer, unassigned) [Compound 420, 1-(1-(6,7-Difluoro-1-oxo-1,2-dihydroisoquinolin-4-yl)ethyl)-3-(2-fluorophenyl)-1-methylurea] was run?
Answer: 740 nM

Question: For `CC(c1c[nH]c(=O)c2cc(F)c(F)cc12)N(C)C(=O)Nc1ccccc1F` (single isomer, unassigned) [Compound 421, 1-(1-(6,7-Difluoro-1-oxo-1,2-dihydroisoquinolin-4-yl)ethyl)-3-(2-fluorophenyl)-1-methylurea], which EC50 [1] is on record?
Answer: 17000 nM

Question: How did the EC50 [2] turn out when `CCN(C(=O)Nc1ccc(F)c(F)c1)C(C)c1c[nH]c(=O)c2cc(F)c(F)cc12` (single isomer, unassigned) [Compound 422, 1-(1-(6,7-Difluoro-1-oxo-1,2-dihydroisoquinolin-4-yl)ethyl)-3-(3,4-difluorophenyl)-1-ethylurea] was run?
Answer: 2800 nM

Question: Which EC50 [2] does the source give for `CCN(C(=O)Nc1ccc(F)c(F)c1)C(C)c1c[nH]c(=O)c2cc(F)c(F)cc12` (single isomer, unassigned) [Compound 423, 1-(1-(6,7-Difluoro-1-oxo-1,2-dihydroisoquinolin-4-yl)ethyl)-3-(3,4-difluorophenyl)-1-ethylurea] here?
Answer: 21 nM

Question: Which EC50 [2] does the source give for `CC(c1cnc(-n2ccnn2)c2ccccc12)N(C)C(=O)Nc1ccc(F)c(Cl)c1` (single isomer, unassigned) [Compound 424, 1-(1-(1-(1H-1,2,3-Triazol-1-yl)isoquinolin-4-yl)ethyl)-3-(3-chloro-4-fluorophenyl)-1-methylurea] here?
Answer: 6400 nM

Question: With `CC(c1cnc(-n2ccnn2)c2ccccc12)N(C)C(=O)Nc1ccc(F)c(Cl)c1` (single isomer, unassigned) [Compound 425, 1-(1-(1-(1H-1,2,3-Triazol-1-yl)isoquinolin-4-yl)ethyl)-3-(3-chloro-4-fluorophenyl)-1-methylurea] as the compound, how does the EC50 [2] read?
Answer: 90 nM

Question: For `Cc1cc(NC(=O)N(C)C(C)c2c[nH]c(=O)c3cc(F)c(F)cc23)ccc1F` (single isomer, unassigned) [Compound 426, 1-(1-(6,7-Difluoro-1-oxo-1,2-dihydroisoquinolin-4-yl)ethyl)-3-(4-fluoro-3-methylphenyl)-1-methylurea], which EC50 [2] is on record?
Answer: 110 nM

Question: For `Cc1cc(NC(=O)N(C)C(C)c2c[nH]c(=O)c3cc(F)c(F)cc23)ccc1F` (single isomer, unassigned) [Compound 427, 1-(1-(6,7-Difluoro-1-oxo-1,2-dihydroisoquinolin-4-yl)ethyl)-3-(4-fluoro-3-methylphenyl)-1-methylurea], which EC50 [2] is on record?
Answer: 7 nM

Question: With `CC(c1c[nH]c(=O)c2cc(F)c(F)cc12)N(C)C(=O)Nc1ccc(F)c(C#N)c1` (single isomer, unassigned) [Compound 428, 3-(3-Cyano-4-fluorophenyl)-1-(1-(6,7-difluoro-1-oxo-1,2-dihydroisoquinolin-4-yl)ethyl)-1-methylurea] as the compound, how does the EC50 [2] read?
Answer: 1600 nM

From patent publication US20230045421A1 (priority 2018, published 2023)
